Source: patent publication US20250332173A1, “COMPOUNDS AND METHODS FOR MODULATING NUCLEIC ACID SPLICING” (REMIX THERAPEUTICS INC., priority 2021, published 2025)
Read-outs that look alike come from different tables or passages of the source.

Test system: MYB mRNA
Test: RT-qPCR splicing assay, MYB canonical junction (CJ) and alternative junction (AJ) mRNA
Assay type: cell-based, human
Details: Homo sapiens; for AC50: increase in MYB alternative junction (AJ) mRNA, read-out: MYB AJ AC50
Method in brief: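 Splicing switches were read by TaqMan RT-qPCR on lysates, quantifying exon-exon junctions of the canonical and alternative-exon isoforms. Lysates came from K562 (GAPDH/GUSB reference) or A673 (PPIA reference) cells exposed 24 h to compound in 11 threefold steps from 10 uM, with DMSO ≤0.25%.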

[1] = Table 5 panel, canonical junction qPCR, compound concentration having 50% response in CJ decrease, read-out: MYB IC50 (decrease in CJ mRNA levels)
[2] = decrease in MYB canonical junction (CJ) mRNA, RT-qPCR, read-out: MYB CJ IC50

| Structure (SMILES) | IC50 [1] | IC50 [2] | AC50 (RT-qPCR) |
| --- | --- | --- | --- |
| Cc1cn2cc(-c3cc(N)c4c(=O)n(C5CCNCC5)cnc4c3)cc(C#N)c2n1 [Compound 364, 6-[5-amino-4-oxo-3-(piperidin-4-yl)quinazolin-7-yl]-2-methylimidazo[1,2-a]pyridine-8-carbonitrile] | > 10 µM | > 10 µM | > 10 µM |
| Cc1cn2nc(-c3cc(F)c4c(=O)n(C5CCNC5)ccc4c3)cc(C)c2n1 (stereo in doubt) [Compound 392, (S)-6-(2,8-dimethylimidazo[1,2-b]pyridazin-6-yl)-8-fluoro-2-(pyrrolidin-3-yl)isoquinolin-1(2H)-one] | < 0.1 µM | < 0.1 µM | < 0.1 µM |
| Cc1cn2cc(-c3cc(F)c4c(=O)n(C5CCOC5)cnc4c3)cc(C#N)c2n1 (stereo in doubt) [Compound 500, (S)-6-(5-fluoro-4-oxo-3-(tetrahydrofuran-3-yl)-3,4-dihydroquinazolin-7-yl)-2-methylimidazo[1,2-a]pyridine-8-carbonitrile] | 0.1 to 1 µM | 0.1 to 1 µM | 0.1 to 1 µM |
| Cc1cn2cc(-c3cc(F)c4c(=O)n(C5CCNCC5)ccc4c3)cc(F)c2n1 [Compound 370] | < 0.1 µM | < 0.1 µM | < 0.1 µM |
| COc1cc2c(=O)n(C3CCNCC3)ccc2cc1-c1cc(C)c2nc(C)cn2n1 [Compound 449, 6-{2,8-dimethylimidazo[1,2-b]pyridazin-6-yl}-7-methoxy-2-(piperidin-4-yl)isoquinolin-1-one] | > 10 µM | > 10 µM | > 10 µM |
| Cc1cc(-c2ccc3c(=O)n([C@@H]4CCNC[C@H]4F)ncc3c2)cc2cn(C)nc12 [Compound 378] | 1 to 10 µM | 1 to 10 µM | 1 to 10 µM |
| Cc1cn2cc(-c3cc(F)c4c(=O)n(C5CCOCC5)cnc4c3)cc(C#N)c2n1 [Compound 367, 6-[5-fluoro-3-(oxan-4-yl)-4-oxoquinazolin-7-yl]-2-methylimidazo[1,2-a]pyridine-8-carbonitrile] | 0.1 to 1 µM | 0.1 to 1 µM | 0.1 to 1 µM |
| Cc1cn2nc(-c3cc(C#N)c4c(=O)n(C5CCNC6(CC6)C5)ccc4c3)cc(C)c2n1 (stereo not drawn) [Compound 387] | < 0.1 µM | < 0.1 µM | < 0.1 µM |
| Cc1cn2cc(-c3cc(O)c4c(=O)n(C5CCNC5)ccc4c3)cc(C#N)c2n1 (stereo not drawn) [Compound 433, 6-(8-hydroxy-1-oxo-2-(pyrrolidin-3-yl)-1,2-dihydroisoquinolin-6-yl)-2-methylimidazo[1,2-a]pyridine-8-carbonitrile] | < 0.1 µM | 1 to 10 µM | 0.1 to 1 µM |
| Cc1c(O)c(-c2cc(F)c3c(=O)n(C4CCNC5(CC5)C4)ccc3c2)cc2cn(C)nc12 (stereo not drawn) [Compound 419, 2-{4-azaspiro[2.5]octan-7-yl}-8-fluoro-6-(6-hydroxy-2,7-dimethylindazol-5-yl)isoquinolin-1-one] | 1 to 10 µM | 1 to 10 µM | 1 to 10 µM |
| Cc1cc(-c2ccc3c(=O)n(C4CCNC5(COC5)C4)cnc3c2)cc2cn(C)nc12 (stereo not drawn) [Compound 375] | 1 to 10 µM | 1 to 10 µM | 1 to 10 µM |
| Cc1cn2nc(-c3ccc4c(=O)n([C@@H]5CCNC6(CC6)C5)ncc4c3)cc(C)c2n1 (stereo in doubt) [Compound 368, 2-[(7R)-4-azaspiro[2.5]octan-7-yl]-6-{2,8-dimethylimidazo[1,2-b]pyridazin-6-yl}phthalazin-1-one] | 0.1 to 1 µM | 0.1 to 1 µM | 0.1 to 1 µM |
| Cc1cn2cc(-c3cc(F)c4c(=O)n(C5CCNC6(CC6)C5)ccc4c3)ncc2n1 (stereo not drawn) [Compound 428, 8-fluoro-6-(2-methylimidazo[1,2-a]pyrazin-6-yl)-2-(4-azaspiro[2.5]octan-7-yl)isoquinolin-1(2H)-one] | 0.1 to 1 µM | 0.1 to 1 µM | 0.1 to 1 µM |
| Cc1cn2nc(-c3ccc4c(=O)n(C5CCNCC5)cc(C)c4c3)cc(C)c2n1 [Compound 381, 6-{2,8-dimethylimidazo[1,2-b]pyridazin-6-yl}-4-methyl-2-(piperidin-4-yl)isoquinolin-1-one] | < 0.1 µM | < 0.1 µM | < 0.1 µM |
| Cc1cn2nc(-c3cc(F)c4c(=O)n(C5CCNC6(CC6)C5)ccc4c3)cc(C)c2n1 (stereo not drawn) [Compound 380, 6-(2,8-dimethylimidazo[1,2-b]pyridazin-6-yl)-8-fluoro-2-(4-azaspiro[2.5]octan-7-yl)isoquinolin-1(2H)-one] | < 0.1 µM | < 0.1 µM | < 0.1 µM |
| Cc1cn2nc(-c3ccc4c(=O)n(C5CCNC6(CC6)C5)ccc4c3)cc(C)c2n1 (stereo not drawn) [Compound 384] | < 0.1 µM | < 0.1 µM | < 0.1 µM |
| Cn1cc2c(n1)CCN(c1ccc3c(=O)n(C4CCNCC4)ccc3c1)C2 [Compound 509, 6-{2-methyl-4H,6H,7H-pyrazolo[4,3-c]pyridin-5-yl}-2-(piperidin-4-yl)isoquinolin-1-one] | > 10 µM | > 10 µM | > 10 µM |

| Structure (SMILES) | IC50 [1] | IC50 [2] | AC50 (RT-qPCR) |
| --- | --- | --- | --- |
| Cc1cn2cc(-c3ccc4c(=O)n(C5CCNC6(CC6)C5)ncc4c3)cc(Cl)c2n1 (stereo not drawn) [Compound 510] | 1 to 10 µM | 1 to 10 µM | 1 to 10 µM |
| Cc1cn2cc(-c3cc(F)c4c(=O)n(C5CCNC6(CC6)C5)ccc4c3)c(O)c(C)c2n1 (stereo not drawn) [Compound 421, 2-{4-azaspiro[2.5]octan-7-yl}-8-fluoro-6-{7-hydroxy-2,8-dimethylimidazo[1,2-a]pyridin-6-yl}isoquinolin-1-one] | > 10 µM | > 10 µM | > 10 µM |
| Cc1cc(-c2ccc3c(=O)n(C4CCNCC4)cnc3c2)cc2cn(C)nc12 [Compound 174] | 0.1 to 1 µM | 0.1 to 1 µM | 0.1 to 1 µM |
| Cc1cn2nc(-c3ccc4c(=O)n(C5CCCNC5)ccc4c3)cc(C)c2n1 (stereo in doubt) [Compound 410, 6-{2,8-dimethylimidazo[1,2-b]pyridazin-6-yl}-2-[(3S)-piperidin-3-yl]isoquinolin-1-one] | 0.1 to 1 µM | 0.1 to 1 µM | 0.1 to 1 µM |
| Cn1cc2cc(-n3cnc4cc(C5=CC6CCC(C5)N6)ccc4c3=O)ccc2n1 (stereo not drawn) [Compound 160] | > 10 µM | > 10 µM | > 10 µM |
| Cc1cn2nc(-c3cc(C)c4c(=O)n(C5CCNC6(CC6)C5)ncc4c3)cc(C)c2n1 (stereo not drawn) [Compound 423, 6-(2,8-dimethylimidazo[1,2-b]pyridazin-6-yl)-8-methyl-2-(4-azaspiro[2.5]octan-7-yl)phthalazin-1(2H)-one] | < 0.1 µM | < 0.1 µM | < 0.1 µM |
| Cc1cn2cc(-c3cc(F)c4c(=O)n(C5CCNCC5)ccc4c3)cc(C#N)c2n1 [Compound 383, 6-[8-fluoro-1-oxo-2-(piperidin-4-yl)isoquinolin-6-yl]-2-methylimidazo[1,2-a]pyridine-8-carbonitrile] | < 0.1 µM | < 0.1 µM | < 0.1 µM |
| Cc1cn2nc(-c3ccc4c(=O)n([C@H]5CCNC6(CC6)C5)ccc4c3)cc(C)c2n1 [Compound 445] | < 0.1 µM | < 0.1 µM | < 0.1 µM |
| Cn1cc2nc(-c3ccc4c(=O)n(C5CCNC6(CC6)C5)ncc4c3)ccc2n1 (stereo not drawn) [Compound 511] | 0.1 to 1 µM | 0.1 to 1 µM | 0.1 to 1 µM |
| Cc1nc2c(F)cc(-c3cc(F)c4c(=O)n(C5CCNC6(CC6)C5)ccc4c3)cc2o1 (stereo not drawn) [Compound 417, 2-{4-azaspiro[2.5]octan-7-yl}-8-fluoro-6-(4-fluoro-2-methyl-1,3-benzoxazol-6-yl)isoquinolin-1-one] | < 0.1 µM | < 0.1 µM | < 0.1 µM |
| Cc1cc(-c2cc(F)c3c(=O)n(C4CCNC5(CC5)C4)ccc3c2)cc2c1nc(C)n2C (stereo not drawn) [Compound 429] | > 10 µM | > 10 µM | > 10 µM |
| Cc1cn2nc(-c3cc(C)c4c(=O)n(C5CCNC6(CC6)C5)ccc4c3)cc(C)c2n1 (stereo in doubt) [Compound 398, (R)-6-(2,8-dimethylimidazo[1,2-b]pyridazin-6-yl)-8-methyl-2-(4-azaspiro[2.5]octan-7-yl)isoquinolin-1(2H)-one] | < 0.1 µM | < 0.1 µM | < 0.1 µM |
| Cc1cn2cc(-c3cc(F)c4c(=O)n(C5CCOC5)cnc4c3)cc(C#N)c2n1 (stereo in doubt) [Compound 499, (R)-6-(5-fluoro-4-oxo-3-(tetrahydrofuran-3-yl)-3,4-dihydroquinazolin-7-yl)-2-methylimidazo[1,2-a]pyridine-8-carbonitrile] | 0.1 to 1 µM | 0.1 to 1 µM | 0.1 to 1 µM |
| Cc1cn2cc(-c3ccc4c(=O)n([C@@H]5CCCNC5)ccc4c3)cc(F)c2n1 (single isomer, unassigned) [Compound 403] | 1 to 10 µM | 0.1 to 1 µM | 1 to 10 µM |
| Cc1cn2cc(-c3cc(S(C)(=O)=O)c4c(=O)n(C5CCNCC5)ccc4c3)cc(F)c2n1 [Compound 409, 6-(8-fluoro-2-methylimidazo[1,2-a]pyridin-6-yl)-8-(methylsulfonyl)-2-(piperidin-4-yl)isoquinolin-1(2H)-one] | > 10 µM | > 10 µM | > 10 µM |
| Cc1cn2cc(-c3ccc4c(=O)n(C5CCNCC5)cc(C)c4c3)cc(F)c2n1 [Compound 440, 6-{8-fluoro-2-methylimidazo[1,2-a]pyridin-6-yl}-4-methyl-2-(piperidin-4-yl)isoquinolin-1-one] | < 0.1 µM | < 0.1 µM | < 0.1 µM |
| Cc1cn2cc(-c3ccc4c(=O)n([C@@H]5CCNC5)cc(C)c4c3)cc(F)c2n1 [Compound 452, (R)-6-(8-fluoro-2-methylimidazo[1,2-a]pyridin-6-yl)-4-methyl-2-(pyrrolidin-3-yl)isoquinolin-1(2H)-one] | 1 to 10 µM | 1 to 10 µM | 1 to 10 µM |
